Test results reported in patent US8536180B2, “Pyrimidine inhibitors of kinase activity” (AbbVie Inc., priority 2009, dated 2013).

Target: T1, C-terminal GST-tagged, recombinant, human IGF-1R, amino acids 954-1367 (Homo sapiens, UniProt P08069)
T1 construct: human IGF-1R, amino acids 954-1367 expressed by baculovirus in Sf21 cells; GST (C); purchased Cell Signaling Technology; host or cells: baculovirus in Sf21 cells
Test: IGF-1R homogenous time-resolved fluorescence (HTRF) in vitro kinase assay
Assay type: biochemical
Conditions: IGF-1R kinase, ATP 50 μM final, biotinylated peptide substrate 0.5 μM, 60 minutes at room temperature
Protocol: IGF-1R kinase activity was assayed by a homogenous time-resolved fluorescence (HTRF) in vitro kinase assay (Mathis, G., HTRF(R) Technology. J Biomol Screen, 1999. 4(6): p. 309-314). Specifically, 10 μL C-terminal GST-tagged, recombinant, human IGF-1R, amino acids 954-1367 expressed by baculovirus in Sf21 cells (Cell Signaling Technology) was mixed with 10 μL inhibitor (various concentrations, 2% final DMSO) and 10 μL of ATP (50 μM final concentration) in reaction buffer (50 mM HEPES, pH 7.5, 10 mM MgCl2, 2 mM MnCl2, 0.1% BSA and 1 mM DTT, 40 μL final volume). The reaction was initiated by addition of 10 μL of biotinylated peptide substrate (Biotin-Ahx-[…], 0.5 μM final concentration) in a black 384-well plate (Packard). After 60 minutes incubation at room temperature, the reaction was quenched by addition of 60 μL stop/revelation buffer to give 30 mM EDTA, 1 μg/mL streptavidin-APC (Prozyme), 50 ng/mL anti-phosphotyrosine mAb PT66-K Europium Cryptate, 30 mM HEPES, pH 7.5, 120 mM KF, 0.005% Tween-20, 0.05% BSA). The quenched reaction was allowed to stand at room temperature for 1 hour and then read in a time-resolved fluorescence detector (Envision, Perkin Elmer) at 615 nm and 665 nm simultaneously. The ratio between the signal of 615 nm and 665 nm was used in the calculation of the IC50.

T1 sequence (P08069 954-1367): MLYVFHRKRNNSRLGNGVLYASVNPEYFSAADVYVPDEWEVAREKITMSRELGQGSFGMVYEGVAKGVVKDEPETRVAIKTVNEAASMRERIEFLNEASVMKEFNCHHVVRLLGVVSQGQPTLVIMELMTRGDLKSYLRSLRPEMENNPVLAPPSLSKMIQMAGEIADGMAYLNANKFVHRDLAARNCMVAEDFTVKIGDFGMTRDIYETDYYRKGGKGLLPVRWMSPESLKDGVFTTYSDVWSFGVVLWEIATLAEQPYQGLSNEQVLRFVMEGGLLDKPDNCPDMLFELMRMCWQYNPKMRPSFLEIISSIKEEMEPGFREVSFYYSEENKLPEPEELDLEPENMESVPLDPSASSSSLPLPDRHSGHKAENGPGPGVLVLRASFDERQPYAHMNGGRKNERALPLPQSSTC

Compound	IC50
O=c1[nH]cccc1Nc1nccc(-c2c(-c3ccc4[nH]c(Cc5ccccc5)nc4c3)nc3ccccn23)n1 [Example 29, 3-({4-[2-(2-benzyl-1H-benzimidazol-5-yl)imidazo[1,2-a]pyridin-3-yl]pyrimidin-2-yl}amino)pyridin-2(1H)-one]	101 to 500 nM
COc1cc(N2CCC(N(C)C)CC2)ccc1Nc1nccc(-c2c(-c3ccc4nc(Cc5ccccc5)[nH]c4c3)nc3sccn23)n1 [Example 30, 4-[6-(2-benzyl-1H-benzimidazol-6-yl)imidazo[2,1-b][1,3]thiazol-5-yl]-N-{4-[4-(dimethylamino)piperidin-1-yl]-2-methoxyphenyl}pyrimidin-2-amine]	< 10 nM
COc1cc(N(C)C)ccc1Nc1nccc(-c2c(-c3ccc4nc(Cc5ccccc5)[nH]c4c3)nc3sccn23)n1 [Example 31, N^1-{4-[6-(2-benzyl-1H-benzimidazol-6-yl)imidazo[2,1-b][1,3]thiazol-5-yl]pyrimidin-2-yl}-2-methoxy-N^4,N^4-dimethylbenzene-1,4-diamine]	10 to 50 nM
COc1cc(Cl)ccc1Nc1nccc(-c2c(-c3ccc4nc(Cc5ccccc5)[nH]c4c3)nc3ccccn23)n1 [Example 32, 4-[2-(2-benzyl-1H-benzimidazol-6-yl)imidazo[1,2-a]pyridin-3-yl]-N-(4-chloro-2-methoxyphenyl)pyrimidin-2-amine]	101 to 500 nM
COc1cc(N(C)C)ccc1Nc1nccc(-c2c(-c3ccc4nc(Cc5ccccc5Cl)[nH]c4c3)nc3sccn23)n1 [Example 33, N^1-(4-{6-[2-(2-chlorobenzyl)-1H-benzimidazol-6-yl]imidazo[2,1-b][1,3]thiazol-5-yl}pyrimidin-2-yl)-2-methoxy-N^4,N^4-dimethylbenzene-1,4-diamine]	10 to 50 nM
COc1ccccc1Cc1nc2ccc(-c3nc4sccn4c3-c3ccnc(Nc4ccc(N(C)C)cc4OC)n3)cc2[nH]1 [Example 34, 2-methoxy-N^1-(4-{6-[2-(2-methoxybenzyl)-1H-benzimidazol-6-yl]imidazo[2,1-b][1,3]thiazol-5-yl}pyrimidin-2-yl)-N^4,N^4-dimethylbenzene-1,4-diamine]	10 to 50 nM
OCCn1cc(Nc2nccc(-c3c(-c4ccc5[nH]c(-c6ccccc6)nc5c4)nc4ccccn34)n2)cn1 [Example 36, 2-[4-({4-[2(2-phenyl-1H-benzimidazol-5-yl)imidazo[1,2-a]pyridin-3-yl]pyrimidin-2-yl}amino)-1H-pyrazol-1-yl]ethanol]	10 to 50 nM
OCCn1cc(Nc2nccc(-c3c(-c4ccc5[nH]c(Cc6ccccc6)nc5c4)nc4ccccn34)n2)cn1 [Example 37, 2-[4-({4-[2(2-benzyl-1H-benzimidazol-5-yl)imidazo[1,2-a]pyridin-3-yl]pyrimidin-2-yl}amino)-1H-pyrazol-1-yl]ethanol]	10 to 50 nM
Fc1ccc(Nc2nccc(-c3c(-c4ccc5nc(-c6ccccc6)[nH]c5c4)nc4ccccn34)n2)cc1 [Example 38, N-(4-fluorophenyl)-4-[2-(2-phenyl-1H-benzimidazol-6-yl)imidazo[1,2-a]pyridin-3-yl]pyrimidin-2-amine]	101 to 500 nM
Fc1ccc(Nc2nccc(-c3c(-c4ccc5[nH]c(Cc6ccccc6)nc5c4)nc4ccccn34)n2)cc1 [Example 39, 4-[2-(2-benzyl-1H-benzimidazol-5-yl)imidazo[1,2-a]pyridin-3-yl]-N-(4-fluorophenyl)pyrimidin-2-amine]	51 to 100 nM
Fc1ccc(Nc2nccc(-c3c(-c4ccc5nc(-c6ccccc6)[nH]c5c4)nc4ccccn34)n2)c(F)c1 [Example 40, N-(2,4-difluorophenyl)-4-[2-(2-phenyl-1H-benzimidazol-6-yl)imidazo[1,2-a]pyridin-3-yl]pyrimidin-2-amine]	> 500 nM

The next lines start with the values.

IC50	Compound
101 to 500 nM	Fc1ccc(Nc2nccc(-c3c(-c4ccc5[nH]c(Cc6ccccc6)nc5c4)nc4ccccn34)n2)c(F)c1 [Example 41, 4-[2-(2-benzyl-1H-benzimidazol-5-yl)imidazo[1,2-a]pyridin-3-yl]-N-(2,4-difluorophenyl)pyrimidin-2-amine]
> 500 nM	FC(F)(F)c1ccccc1Cc1nc2ccc(-c3nc4sccn4c3-c3ccnc(Nc4ccccc4CN4CCCC4)n3)cc2[nH]1 [Example 42, N-[2-(pyrrolidin-1-ylmethyl)phenyl]-4-(6-{2-[2-(trifluoromethyl)benzyl]-1H-benzimidazol-6-yl}imidazo[2,1-b][1,3]thiazol-5-yl)pyrimidin-2-amine]
10 to 50 nM	COc1ccc(S(C)(=O)=O)cc1Nc1nccc(-c2c(-c3ccc4nc(Cc5ccccc5)[nH]c4c3)nc3ccccn23)n1 [Example 43, 4-[2-(2-benzyl-1H-benzimidazol-6-yl)imidazo[1,2-a]pyridin-3-yl]-N-[2-methoxy-5-(methylsulfonyl)phenyl]pyrimidin-2-amine]
> 500 nM	Cn1cc(Nc2nccc(-c3c(-c4ccc5[nH]c(-c6ccccc6)nc5c4)nc4ccccn34)n2)cn1 [Example 44, N-(1-methyl-1H-pyrazol-4-yl)-4-[2-(2-phenyl-1H-benzimidazol-5-yl)imidazo[1,2-a]pyridin-3-yl]pyrimidin-2-amine]
101 to 500 nM	COc1ccc(C(F)(F)F)cc1Nc1nccc(-c2c(-c3ccc4nc(Cc5ccccc5)[nH]c4c3)nc3ccccn23)n1 [Example 45, 4-[2-(2-benzyl-1H-benzimidazol-6-yl)imidazo[1,2-a]pyridin-3-yl]-N-[2-methoxy-5-(trifluoromethyl)phenyl]pyrimidin-2-amine]
10 to 50 nM	CN(C)Cc1ccc(Nc2nccc(-c3c(-c4ccc5nc(Cc6ccccc6C(F)(F)F)[nH]c5c4)nc4sccn34)n2)cc1 [Example 46, N-{4-[(dimethylamino)methyl]phenyl}-4-(6-{2-[2-(trifluoromethyl)benzyl]-1H-benzimidazol-6-yl}imidazo[2,1-b][1,3]thiazol-5-yl)pyrimidin-2-amine]
10 to 50 nM	COc1cc(NCC(C)(C)O)ccc1Nc1nccc(-c2c(-c3ccc4[nH]c(Cc5ccccc5)nc4c3)nc3ccccn23)n1 [Example 47, 1-{[4-({4-[2-(2-benzyl-1H-benzimidazol-5-yl)imidazo[1,2-a]pyridin-3-yl]pyrimidin-2-yl}amino)-3-methoxyphenyl]amino}-2-methylpropan-2-ol]
10 to 50 nM	COc1cc(N(C)CCO)ccc1Nc1nccc(-c2c(-c3ccc4nc(Cc5ccccc5)[nH]c4c3)nc3ccccn23)n1 [Example 48, 2-[[4-({4-[2-(2-benzyl-1H-benzimidazol-6-yl)imidazo[1,2-a]pyridin-3-yl]pyrimidin-2-yl}amino)-3-methoxyphenyl](methyl)amino]ethanol]
10 to 50 nM	COc1cc(NCC(=O)O)ccc1Nc1nccc(-c2c(-c3ccc4[nH]c(Cc5ccccc5)nc4c3)nc3ccccn23)n1 [Example 49, N-[4-({4-[2-(2-benzyl-1H-benzimidazol-5-yl)imidazo[1,2-a]pyridin-3-yl]pyrimidin-2-yl}amino)-3-methoxyphenyl]glycine]
10 to 50 nM	COc1ccc(CN(C)CCO)cc1Nc1nccc(-c2c(-c3ccc4nc(Cc5ccccc5)[nH]c4c3)nc3ccccn23)n1 [Example 50, 2-[[3-({4-[2-(2-benzyl-1H-benzimidazol-6-yl)imidazo[1,2-a]pyridin-3-yl]pyrimidin-2-yl}amino)-4-methoxybenzyl](methyl)amino]ethanol]
< 10 nM	CN(C)CC(=O)Nc1cccc(Nc2nccc(-c3c(-c4ccc5nc(Cc6ccccc6)[nH]c5c4)nc4ccccn34)n2)c1 [Example 51, N^1-[3-({4-[2-(2-benzyl-1H-benzimidazol-6-yl)imidazo[1,2-a]pyridin-3-yl]pyrimidin-2-yl}amino)phenyl]-N^2,N^2-dimethylglycinamide]
< 10 nM	COc1cc(N2CCC(N(C)C)CC2)ccc1Nc1nccc(-c2c(-c3ccc4nc(Cc5ccccc5C(F)(F)F)[nH]c4c3)nc3sccn23)n1 [Example 52, N-{4-[4-(dimethylamino)piperidin-1-yl]-2-methoxyphenyl}-4-(6-{2-[2-(trifluoromethyl)benzyl]-1H-benzimidazol-6-yl}imidazo[2,1-b][1,3]thiazol-5-yl)pyrimidin-2-amine]
< 10 nM	COc1ccc(NC(=O)CN(C)C)cc1Nc1nccc(-c2c(-c3ccc4nc(Cc5ccccc5)[nH]c4c3)nc3ccccn23)n1 [Example 53, N^1-[3-({4-[2-(2-benzyl-1H-benzimidazol-6-yl)imidazo[1,2-a]pyridin-3-yl]pyrimidin-2-yl}amino)-4-methoxyphenyl]-N^2,N^2-dimethylglycinamide]
< 10 nM	COc1cc(N2CCC(N(C)C)CC2)ccc1Nc1nccc(-c2c(-c3ccc4nc(Cc5ccccc5Cl)[nH]c4c3)nc3sccn23)n1 [Example 54, 4-{6-[2-(2-chlorobenzyl)-1H-benzimidazol-6-yl]imidazo[2,1-b][1,3]thiazol-5-yl}-N-{4-[4-(dimethylamino)piperidin-1-yl]-2-methoxyphenyl}pyrimidin-2-amine]
